Each structure is given as a SMILES string.

This passage reports melting point results from a melting point compilation (Tetko et al.; mined from patent text by program, amines drawn as free bases though some values may be those of a salt).

The melting point is the temperature, or range, at which the solid turns liquid. `CCCc1nc(C(C)(O)CC)c(C(=O)O)n1Cc1ccc(-c2ccccc2-c2nnn[nH]2)cc1` (stereo not drawn) came in with a melting point of 174 to 177 °C.

The molecule `COC(=O)C1=C(C)N=C(OC)N(C(=O)NCCCC(=O)OC(C)(C)C)C1c1ccc(F)cc1` (stereo not drawn) yielded a melting point of 135 to 138 °C.

On to `O=Cc1c2ccccc2c(C=O)c2c1ccc1ccccc12`, for which the melting point was 197 to 198 °C.

In the case of `CC(C)(C)C(=O)Nc1nn(C(=O)C(C)(C)C)c(N)c1C#N`, the melting point fell in the range of 181 to 184 °C.

`O=[N+]([O-])c1ccc2c(ccn2Cc2cccnc2)c1`: the melting point lay in the range of 131 to 134 °C.

Regarding `Cc1c(O)ccc(C(=O)c2cccs2)c1C`, the melting point amounted to 144 °C.

Consider `CC(C)(C)OC(=O)N1CCC2(CC1)C(=O)N(CC(=O)O)CN2c1ccccc1`, for which the melting point lay in the range of 200 to 201 °C.

As to `COc1ccc(C2=NN(C3CCN(S(=O)(=O)N(C)C)CC3)C(=O)CC2)cc1OC`, the melting point was 103 to 106 °C.

`COc1ncc(Nc2nc(N3CCOCC3)nc(-n3c(C(F)F)nc4c(OC)cccc43)n2)cn1` showed a melting point of 255 to 258 °C.

Consider `CCCCn1cc(C(=O)OCC)c(NC(=S)Nc2ccccc2)n1`, for which the melting point was in the range of 93 to 95 °C.

Take `CC(=O)NCc1ccc(CN2CCN(c3ccc(F)cc3F)CC2)cc1`: the melting point lay within 94 to 95 °C.

Molecule `O=C1SC(Cc2ccc(OCCON=Cc3ccc(-c4ccccc4)nc3)cc2)C(=O)N1C(c1ccccc1)(c1ccccc1)c1ccccc1` (stereo not drawn) yielded a melting point of 146 to 148 °C.

Consider `Cc1ccc(N(C)C(=O)Cc2ccccc2)s1`, for which the melting point was 77 to 79 °C.

As for `Cc1sc(-c2ccccc2)nc1-c1ccc(Cl)cc1`, the melting point is 90 to 91 °C.

`CCOc1c(C)c(C)c(OC)c(CN(C)CCOc2cc(C)ccc2C(C)C)c1C` showed a melting point of 115 to 120 °C.

For `CC(N=C(O)C(Cl)=C(Cl)C(=O)O)c1ccccc1` (stereo not drawn), the melting point was in the range of 62 to 65 °C.

Molecule `COc1cc2[nH]c(C)c(CCN3CCN(NC(=O)c4ccc(F)cc4)CC3)c2cc1OC` came in with a melting point of 116 to 119 °C.

`CS(=O)CC(=O)c1ccon1` (stereo not drawn) returned a melting point of 164 to 166 °C.

For `COc1ccc(C=CC(=O)c2cccc(OC)c2OC)cc1F`, the melting point fell in the range of 79.3 to 80.2 °C.

`CCCCS(=O)(=O)NC(CNC(=O)c1cccc(C(=O)C2CCC3(CCNCC3)CC2)c1)C(=O)O` (stereo not drawn) registered a melting point of 155 to 157 °C.

Take `CC(=O)Nc1ccc(S(=O)(=O)NCC(O)(Cn2cncn2)c2ccc(Cl)cc2Cl)cc1` (stereo not drawn): the melting point lay in the range of 232 to 233 °C.

Regarding `CCOC(=O)C(CC=Cc1ccc(Cl)cc1)S(=O)(=O)c1ccc(C)cc1` (stereo not drawn), the melting point was in the range of 87 to 88 °C.

For `CCCCC(CC)Cn1c(=O)nc(N(C)C)n(C)c1=O` (stereo not drawn), the melting point was in the range of 74 to 75 °C.

In turn, `Cc1ccc(NC(=N)c2ccccc2)cc1NC(=O)/C=C/c1ccccc1C(F)(F)F` yielded a melting point of 220 to 222 °C.

In turn, `c1cncc(NCCCOc2cccc(CN3CCCCC3)c2)c1` displayed a melting point of 120 to 122 °C.

Regarding `CCn1cc(C(=O)O)c(=O)c2cc(F)c(N3CCC(N(C)C)CC3)c(F)c21`, the melting point was in the range of 210 to 211 °C.

With `CS(=O)(=O)c1ccc(-c2cc(COCCO[N+](=O)[O-])nn2CC2CCCCC2)cc1`, the melting point was 98 to 100 °C.

With `COc1ccc(-c2c(Cl)c(CN3C(=O)CCC3=O)nc3sc4c(F)c(OC)ccc4c23)cc1`, the melting point fell in the range of 215 to 216 °C.

`COC1Cc2ccc(F)cc2/C1=C/C(N)=O` (stereo not drawn): the melting point lay in the range of 128 to 130 °C.

As to `CC(Cc1c[nH]c2ccccc12)(NC(=O)OC(C)(C)C(Cl)(Cl)Cl)C(=O)NCCc1ccccn1` (stereo not drawn), the melting point lay in the range of 130 to 133 °C.

Molecule `Cc1cc(S(=O)(=O)C[N+](=O)[O-])c(C)cc1Cl` registered a melting point of 113 to 114 °C.

Molecule `CCNC(=O)COC1CCN(Cc2cnc3cc(NC(=O)c4ccc(-c5ccc(F)cc5)cc4)ccc3c2)CC1` displayed a melting point of 228 to 230 °C.

Molecule `COC(=O)Cc1ccc(OCC(C)NCC(O)c2ccc(Cl)cc2)cc1` (stereo not drawn) showed a melting point of 78 to 79 °C.

Regarding `O=C(CCC1CCCCCCCCCCC1)C1=C(O)COC1=O`, the melting point was in the range of 99 to 102 °C.

For `O=c1c2ccccc2nc(-c2sc(Nc3ccccc3)nc2-c2ccccc2)n1-c1ccc(Cl)cc1`, the melting point was in the range of 218 to 222 °C.

In the case of `Cc1ccn2c(=O)c(CCN3CCC(c4c[nH]c5ccccc45)CC3)c(C)nc2c1`, the melting point worked out at 236 °C.

Turning to `c1ccc(CN2CCN(c3n[nH]c4c3CCc3ccccc3-4)CC2)cc1`, the melting point was in the range of 254 to 256 °C.

`OCc1cccc(-c2cccc(-c3cn([C@H]4CN5CCC4CC5)nn3)c2)c1` gave a melting point of 201 °C.

`COc1ccc(-n2c(-c3ccccc3)cnc2S)cc1` had a melting point of 167 °C.

Turning to `CCOC(=O)c1nc(-c2ccc(F)cc2)c(-c2ccc(S(C)(=O)=O)cc2)s1`, the melting point lay within 173 to 174 °C.

The molecule `O=C(O)CCCCCC[C@H]1CC[C@@H](O)CC1` registered a melting point of 75 to 79 °C.

Take `CCOC(=O)c1nc2c(=O)[nH]c3cc(C(F)(F)F)ccc3n2c1Cn1ccnc1C`: the melting point is more than 250 °C.

`Cn1nc2c(cc1=O)CCSc1ccccc1-2` had a melting point of 139 to 140 °C.

`CCc1c[nH]c2c3c(ccc12)OCC3` gave a melting point of 91 to 92.5 °C.

`CC(C=CC1(O)C(C)=CC2(OCCO2)c2ccccc21)=CCO` (stereo not drawn) yielded a melting point of 116 to 118 °C.

As for `COC(=O)C(Oc1cc(OCc2ccsc2)ccc1C#N)c1ccccc1` (racemic), the melting point fell in the range of 112 to 114 °C.

For the molecule `COC(=O)c1cc(C)c(C)cc1C(=O)OC`, the melting point is 54 to 55 °C.

In turn, `COc1ccccc1-n1c(=O)[nH]c2c(C(N)=O)nc(Nc3ccc(Cn4ccnc4)cc3)nc21` came in with a melting point of 165 to 170 °C.

On to `Cn1c(C2CCN(C(=O)OC(C)(C)C)CC2)nc2cc(-c3ccc(S(C)(=O)=O)cc3F)ccc21`, for which the melting point was in the range of 85 to 88 °C.

For the molecule `Oc1ccc(CCN(Cc2ccccc2)CC(O)COc2ccccc2)cc1` (stereo not drawn), the melting point lay within 103 to 105 °C.

`CON1CCC(C#N)(NO)CC1` registered a melting point of 130 to 131 °C.

Regarding `Cc1cc(C2CC(C)(C)CC(C)(C)C2(O)C#C[Si](C)(C)C)ccc1F` (stereo not drawn), the melting point fell in the range of 76 to 78 °C.

In turn, `COC(=O)CONC(=O)c1c(Cl)ccc(Cl)c1OC` yielded a melting point of 102 to 105 °C.

Regarding `O=C(CN1CCCC1=O)NCc1cccc(CNC(=O)CN2CCCC2=O)n1`, the melting point worked out at 149 °C.

Regarding `O=C(Nc1nnn(CC(F)(F)F)n1)C(c1ccccc1)c1ccccc1`, the melting point was 146 to 148 °C.

Turning to `O=CC(=O)c1ccc2c(c1)CCC2`, the melting point lay within 100 to 112 °C.

The molecule `O=Cc1cc2ccsc2c2ccccc12` registered a melting point of 96 to 96.5 °C.

`Nc1nc(-n2cc(C(=O)O)c(=O)c3cc(F)c(F)c(Cl)c32)c(Cl)cc1F` came in with a melting point of 280 °C.

Take `Cn1c2ccccc2c2ccc3c(c21)C(=O)OC3=O`: the melting point is more than 300 °C.

`COc1cc(CC(=O)Nc2ccc(C3CN(C(=O)CCC(=O)O)CC3C(=O)O)cc2)ccc1NC(=O)Nc1ccccc1C` (stereo not drawn) came in with a melting point of 184 °C.

For the molecule `N#CC1(c2ccc(C(F)(F)F)cc2)C2CC3CC(C2)CC1C3` (stereo not drawn), the melting point fell in the range of 122 to 124 °C.

`O=C(O)c1cc(-c2ccccc2)c(=O)n2c1-c1sccc1C2`: the melting point is more than 300 °C.

Turning to `COC(=O)C(Cc1ccccc1)C(=O)N1CCC(C(=O)O)CC1` (stereo not drawn), the melting point worked out at 138 °C.

Regarding `O=C1NC(=O)C(Cc2ccc(OCCON=Cc3ccc4ccccc4c3)cc2)S1` (stereo not drawn), the melting point lay within 108 to 111 °C.

`CCOC(=O)Nn1cccc1C(=O)c1ccccc1` showed a melting point of 68 to 70 °C.

`CCC1CC2=CC(O)CCC2C2CCC3(C)C(O)CCC3C12` (stereo not drawn) returned a melting point of 93 to 95 °C.

`O=C1CCCc2c1c1cccc(Cl)c1n2Cc1ccccc1` had a melting point of 161 to 162 °C.

Molecule `CCOC(=O)C1CCc2c(sc3ccc(C)cc23)C1` (stereo not drawn) showed a melting point of 68 to 69 °C.

On to `CCCCOc1ccc2cc(Nc3ccc(O)cc3)ccc2c1`, for which the melting point lay within 138 to 139 °C.

In turn, `CCC(CC)C(c1ccnn1-c1ccccc1)N(C)S(=O)(=O)c1ccc(Cl)cc1` (stereo not drawn) gave a melting point of 86.5 to 89 °C.

`COc1cc(OC)c2c(=O)[nH]c(-c3cc(C)c(O)c(C)c3)nc2n1`: the melting point lay within 297 to 299 °C.

`CN1CCc2ccccc2C(c2ccccc2)C1(C)C` (stereo not drawn) yielded a melting point of 92 to 93 °C.

Turning to `COc1nnc(-c2ccc3occ(-c4ccc(OC(F)(F)F)cc4)c3c2)o1`, the melting point was 143 to 144 °C.

The molecule `CN1CCN(CC(=O)N2c3ccccc3N(C)S(=O)(=O)c3ccccc32)CC1` registered a melting point of 143 to 144 °C.

Consider `COc1ncc(NS(=O)(=O)c2cccc3c(N(C)C)cccc23)c(OC)n1`, for which the melting point was 201 °C.

`CCCc1cc(CCC)n2nc(C)c(C#N)c2n1` had a melting point of 73 to 74 °C.

The molecule `CCOC(=O)c1ccc(-c2ccc(O)c(-c3ccc(N(CC)CC)c(C(F)(F)F)c3)c2)cc1` gave a melting point of 170 °C.

`O=C(Nc1ccc(-n2nc(C(F)(F)F)cc2C(F)(F)F)cc1)c1cc(F)ccc1F` gave a melting point of 168 to 169 °C.

Turning to `CC(C)c1nc(-c2ccccc2)n(-c2ccc(F)cc2)c1C=O`, the melting point lay in the range of 159 to 161 °C.

Consider `C#CCOC(=O)N1c2ccccc2C(=O)Nc2cccnc21`, for which the melting point came out at 213 °C.

Regarding `NCCON=C1c2ccccc2C2CC2c2ccccc21` (stereo not drawn), the melting point lay in the range of 133 to 134 °C.

Molecule `N#Cc1ccccc1Cn1cc(C(=O)C(=O)NC2=CC(=O)OC2)c2ccccc21` came in with a melting point of 229 to 231 °C.

In the case of `COc1cccc(-c2nc(Cl)nc(Nc3cccc([N+](=O)[O-])c3)n2)c1`, the melting point amounted to 155 °C.

The molecule `CCn1c(=O)n(O)c(=O)c2cc(F)c(N3CCOCC3)cc21` gave a melting point of 162 to 163 °C.

As to `COCOc1ccc(C=CC(=O)C=Cc2ccc(OCOC)c(OC)c2)cc1OC`, the melting point was 81 to 82 °C.

The molecule `Cc1ccc(C)c(NC(=O)N2CCC(c3nc(C4=NOC(c5ccccc5)C4)cs3)CC2)c1` (stereo not drawn) had a melting point of 124 to 127 °C.

Molecule `COc1ccccc1N1CCN(CCNc2ccccc2C(C)=O)CC1` showed a melting point of 92 to 94 °C.

`CSc1ccc(-c2nn(CC3CC3)c(=S)cc2-c2ccc(Cl)cc2)cc1`: the melting point was 135 °C.
